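Step 1: Grow cells in 96-well plates. Step 2: Expose to compound for 48 hours at 5 concentrations. Step 3: Interpolate endpoints linearly; if unreached, use highest concentration. TGI denotes the concentration required for complete inhibition of growth.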

By TGI is commonly meant the concentration giving total growth inhibition.

Some test systems named below: ACHN renal; SN12C renal; SK-MEL-28 melanoma; OVCAR-3 ovarian; CAKI-1 renal; M14 melanoma; SNB-19 CNS; LOX IMVI melanoma; UACC-257 melanoma; HT29 colon.
Assay in all cases: DTP human tumour cell line panel, 48 h

For `CCOC(=O)c1cc(C2(O)CCN(Cc3ccccc3)C2=O)c(-c2cc(C)no2)[nH]1` (stereo not drawn), the TGI in the assay on ACHN renal is above 100 µM; with SN12C renal it was above 100 µM; with SK-MEL-28 melanoma it was above 100 µM; with OVCAR-3 ovarian it was above 100 µM; in the assay with CAKI-1 renal, 74.3 µM; in the assay on M14 melanoma, above 100 µM. In addition, the TGI in the assay on SNB-19 CNS, in the assay with LOX IMVI melanoma and with UACC-257 melanoma was above 100 µM throughout.
Regarding `O=C1O[C@@H](c2ccccc2)C[C@@H]1CN1CCOCC1`, the TGI in the assay with HT29 colon, in the assay with ACHN renal, in the assay with SN12C renal, in the assay on SK-MEL-28 melanoma, in the assay on OVCAR-3 ovarian and with CAKI-1 renal was above 100 µM each time. Moreover, the concentration for total growth inhibition (TGI) in the assay with M14 melanoma, in the assay with LOX IMVI melanoma and in the assay on UACC-257 melanoma was above 100 µM in each case.
Take `CC1(C)CC2(C)CC1CC2O` (stereo not drawn): the TGI in the assay on HT29 colon, with SN12C renal, in the assay with SK-MEL-28 melanoma, in the assay with OVCAR-3 ovarian, in the assay on CAKI-1 renal and in the assay on M14 melanoma was above 100 µM in each case. For the same compound, the TGI with SNB-19 CNS, in the assay on LOX IMVI melanoma and with UACC-257 melanoma was above 100 µM throughout.
`C=CCN(CC=C)Cn1c(=S)sc2ccccc21`: the TGI with ACHN renal was above 100 µM; in the assay with SN12C renal, above 100 µM; in the assay with SK-MEL-28 melanoma, above 100 µM; in the assay on OVCAR-3 ovarian it was above 100 µM; in the assay on CAKI-1 renal it was 30.7 µM; in the assay on M14 melanoma, above 100 µM. Further, the TGI with SNB-19 CNS is above 100 µM; with LOX IMVI melanoma it was 47.1 µM; in the assay with UACC-257 melanoma, above 100 µM.
As for `Clc1cc(N/N=C(/c2ccccc2)c2ncccn2)ncn1`, the TGI was above 100 µM in the assay on HT29 colon; 22.9 µM with ACHN renal; above 100 µM in the assay with SN12C renal; above 100 µM in the assay with SK-MEL-28 melanoma; 76 µM in the assay on OVCAR-3 ovarian; 73.4 µM in the assay on CAKI-1 renal. The figures for the TGI in the assay with M14 melanoma, in the assay on SNB-19 CNS and in the assay on UACC-257 melanoma were above 100 µM, above 100 µM and 64.4 µM, respectively.
Regarding `CC12CC(c3ccccc3O1)C(C(=O)Nc1ccc(F)cc1)C(=O)N2` (stereo not drawn), the TGI in the assay with HT29 colon, in the assay with ACHN renal, in the assay with SK-MEL-28 melanoma, in the assay with OVCAR-3 ovarian, in the assay on CAKI-1 renal and with M14 melanoma was above 100 µM in each case. Moreover, the TGI in the assay on SNB-19 CNS, in the assay on LOX IMVI melanoma and with UACC-257 melanoma was above 100 µM each time.
For `CCOc1ccc(N/C(=C(/C(Cl)=C(/Cl)NCCN)[N+](=O)[O-])n2nnc3ccccc32)cc1`, the TGI with HT29 colon was above 100 µM; with ACHN renal, 43.8 µM; in the assay on SN12C renal it was above 100 µM; in the assay on SK-MEL-28 melanoma, above 100 µM; in the assay on OVCAR-3 ovarian it was 63.3 µM; with CAKI-1 renal, 34.8 µM. The TGI in the assay with M14 melanoma, with SNB-19 CNS and with UACC-257 melanoma was above 100 µM each time.
In the case of `O=C1NC(c2ccc(O)cc2)C2CCC1C2` (stereo not drawn), the TGI in the assay with HT29 colon, with ACHN renal, in the assay on SN12C renal, in the assay on SK-MEL-28 melanoma, in the assay on OVCAR-3 ovarian and in the assay on CAKI-1 renal was above 100 µM in each case. The TGI in the assay with M14 melanoma, with SNB-19 CNS and with UACC-257 melanoma was above 100 µM throughout.
On to `COc1cc(COC(=O)N[C@H](C(=O)O)C(C)(C)C)c([N+](=O)[O-])cc1OC`, for which the TGI in the assay on HT29 colon, in the assay with ACHN renal, in the assay with SN12C renal, in the assay on SK-MEL-28 melanoma, in the assay with OVCAR-3 ovarian and in the assay on M14 melanoma was above 100 µM throughout. Further, the TGI in the assay with SNB-19 CNS and in the assay with UACC-257 melanoma was above 100 µM in each case.
For the compound `Cc1cn(C2CC(N)C(CN)O2)c(=O)[nH]c1=O` (stereo not drawn), the TGI in the assay with HT29 colon, in the assay on ACHN renal, in the assay with SN12C renal, in the assay with SK-MEL-28 melanoma, with OVCAR-3 ovarian and with CAKI-1 renal was above 100 µM in each case. Moreover, the TGI in the assay on M14 melanoma, with SNB-19 CNS and with UACC-257 melanoma was above 100 µM throughout.
For `Cc1ccc(-c2cc(N)n(-c3nc4c([nH]3)c(=O)n(C)c(=O)n4C)n2)cc1`, the TGI in the assay on HT29 colon is above 100 µM; in the assay on ACHN renal, 10.7 µM; in the assay with SN12C renal it was 27.2 µM; in the assay on SK-MEL-28 melanoma, 94.8 µM; with OVCAR-3 ovarian, 18.9 µM; with CAKI-1 renal, 13.4 µM. The TGI with M14 melanoma was 24.4 µM; with SNB-19 CNS, above 100 µM; with UACC-257 melanoma, 82.3 µM.
With `CCCN=C1CC(C)Nc2ccccc2N1` (stereo not drawn), the TGI in the assay on HT29 colon, with ACHN renal, with SN12C renal, with SK-MEL-28 melanoma, in the assay on OVCAR-3 ovarian and with CAKI-1 renal was above 100 µM each time. Moreover, the total growth inhibition concentration (TGI) in the assay on M14 melanoma, in the assay with SNB-19 CNS and in the assay with UACC-257 melanoma was above 100 µM each time.
Turning to `O=C(/C(=C(/Br)I)c1ccccc1)c1ccccc1`, the TGI is 36.1 µM with HT29 colon; 71.2 µM in the assay with ACHN renal; 49.9 µM in the assay with SN12C renal; 42 µM with OVCAR-3 ovarian; above 100 µM with CAKI-1 renal; 31 µM in the assay with M14 melanoma. Moreover, the TGI is above 100 µM in the assay on SNB-19 CNS, 32.3 µM in the assay with LOX IMVI melanoma and 43.8 µM with UACC-257 melanoma.
For the compound `CCN(CC)CCn1c2cc3c(cc2c(=O)c2cccnc21)OCCO3`, the TGI with HT29 colon, in the assay on ACHN renal, in the assay on SN12C renal, with SK-MEL-28 melanoma, in the assay on OVCAR-3 ovarian and in the assay on CAKI-1 renal was above 10 µM throughout. Moreover, the TGI in the assay on M14 melanoma, with SNB-19 CNS and with UACC-257 melanoma was above 10 µM each time.
For the compound `COc1ccc2c(c1)c1c(n2CCN2CCOCC2)-c2ccccc2CC1`, the TGI with HT29 colon was above 100 µM; with ACHN renal, above 100 µM; in the assay with SN12C renal it was 69.8 µM; in the assay on SK-MEL-28 melanoma, above 100 µM; in the assay on OVCAR-3 ovarian it was above 100 µM; in the assay with CAKI-1 renal, above 100 µM. Moreover, the total growth inhibition concentration (TGI) in the assay with M14 melanoma and in the assay on UACC-257 melanoma was above 100 µM in each case.

(Values after PubChem BioAssay (NCI).)
